The text below walks through data of paper PMC6274786 (International Journal of Molecular Sciences, 2018).

For one series, the target named is T1, human H1 receptor (Homo sapiens, UniProt P35367).
T1 construct: purchased PerkinElmer; host or cells: CHO-K1 cells, stably transfected (membranes)
Briefly: Radioligand binding, membranes from CHO-K1 cells. As to the method:
Radioligand binding was performed as previously described using membranes from CHO-K1 cells stably transfected with the human H1 receptor (PerkinElmer., Waltham, MA, USA). Data were fitted to a one-site curve-fitting equation with Prism 6 (GraphPad Software, city, state, country) and Ki values were estimated from the Cheng–Prusoff equation [44].

A further series deals with T2, hH4R (Homo sapiens, UniProt Q9H3N8).
T2 construct: expressed in transfected cells; host or cells: Sf9 insect cells (membrane preparations)
T2 sequence (Q9H3N8 whole entry): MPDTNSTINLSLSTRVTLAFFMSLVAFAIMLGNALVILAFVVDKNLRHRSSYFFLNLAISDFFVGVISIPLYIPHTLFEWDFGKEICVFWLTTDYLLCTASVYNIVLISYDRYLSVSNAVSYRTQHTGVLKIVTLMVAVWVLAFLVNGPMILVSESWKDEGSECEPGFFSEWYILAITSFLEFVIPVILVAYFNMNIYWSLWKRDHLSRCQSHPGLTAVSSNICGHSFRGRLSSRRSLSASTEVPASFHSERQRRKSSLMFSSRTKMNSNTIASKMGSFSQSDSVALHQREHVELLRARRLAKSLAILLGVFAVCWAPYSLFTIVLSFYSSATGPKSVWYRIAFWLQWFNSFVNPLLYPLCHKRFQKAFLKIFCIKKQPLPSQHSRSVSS
Briefly: H4R radioligand displacement assay, Sf9 cell membrane preparations. The class given is binding. As to the method: H4R radioligand displacement assays were performed with Sf9 cell membrane preparations, expressing the hH4R, as described previously. Assays ran in triplicates with four appropriate concentrations of the test compound. Data were analyzed by GraphPad Prism 7, using the “one-site competition” equation.

Series [1] in a line: Metabolic stability in rat liver microsomes. The class given is in vitro ADME. Particulars: RLMs, MS ion fragment analysis, metabolite M-I. On the procedure:
Rat liver microsomes (RLMs) purchased form Sigma-Aldrich (St. Louis, MO, USA) were used for in vitro determination of compound 4’s metabolic stability. The NADPH regeneration system was purchased from Promega (Madison, WI, USA). All experiments were performed as described before. The reaction mixture was preincubated at 37 °C for 5 min, and then the reaction was started by adding 50 µL of NADPH regeneration system. The reaction was ended after 120 min by the addition of cold methanol (200 µL). The mixture was then centrifuged at 14,000 rpm for 15 min and the ultra-performance liquid chromatography–mass spectrometry (UPLC/MS) analysis of the supernatant was conducted. Ion fragment analyses were also performed for metabolic pathways’ determination.

The test system of the next series is STR-induced seizure. Briefly: Strychnine (STR)-induced seizure. The class given is in vivo, Wistar rats. Particulars: 10 mg/kg i.p. On the procedure:
(§1) In this study and according to previously used protocols, two chemical agents have been used to induce seizures, namely pentylenetetrazole (PTZ, 60 mg/kg, i.p.) and strychnine (STR, 3.5 mg/kg, i.p.). PTZ 60 mg/kg or STR 3.5 mg/kg were administered i.p. to all groups of seven rats (n = 7), that is, animals pretreated with vehicle or test compounds 1–16. Vehicle, VPA (300 mg/kg, i.p.), [26, 47, 48, 49] or test compounds 1–16 (10 mg/kg, i.p.) were systemically administered 30–45 min before PTZ (60 mg/kg, i.p.) or STR (3.5 mg/kg, i.p.) injection, and animals were directly observed for any signs of convulsion for a duration of 30 min. The observed scores as well as percent protection against generalized tonic-clonic seizure (GTCS) were graded and scaled according to the Racine scale (stage 0, no change in behavior; stage 1, stereotype mouthing, eye blinking, and/or mild facial clonus; stage 2, head nodding and/or severe facial clonus; stage 3, myoclonic jerk in forelimbs; stage 4, clonic convulsions in the forelimbs with rearing; stage 5, generalized colonic convulsions associated with loss of balance) to evaluate the protection provided by the respective test compound against seizures. The animals were divided into eighteen groups of seven rats (n = 7) and treated as follows.
(§2) (1) Control group injected with vehicle + PTZ (SAL group), (2) positive control group in which rats were injected with VPA (300 mg/kg) + PTZ (VPA group), and animals in the test groups (3)–(18) were systemically administered with test compounds 1–16 (10 mg/kg), respectively. An additional PTZ experiment was conducted using three different groups of seven rats (n = 7), the H3R ligand with the most promising protection in PTZ model was administered at doses of 2.5, 5, or 15 mg/kg, i.p. 30–45 min before the PTZ challenge. […] The same experimental procedure was followed in the STR-induced seizure model applying the reference drug VPA, which was used at a dose of 300 mg/kg, i.p. (Figure 3, Table 2).

A further series deals with PTZ-induced seizure. Briefly: Pentylenetetrazole (PTZ)-induced seizure. The series is classed as in vivo, Wistar rats. On the procedure:
as §1, §2

For the next series, the system named is MES-induced seizure. Briefly: Maximal electroshock (MES)-induced seizure. The series is classed as in vivo, Wistar rats. An excerpt: As previously described, the seizures were induced in rats with a 50 Hz alternating current of 120 mA intensity. The current was applied through ear electrodes for 1 s. Protection against the spread of MES-induced seizure was defined as the abolition of the tonic hind limb extension (THLE) component of the seizure. For the first screening of protective effects of test compounds 1–16 in the MES-induced seizure model, the animals were divided into eighteen groups of seven rats (n = 7) as follows; group (1) control group injected with vehicle (SAL), group (2) positive control group in which rats were injected with PHT at a dose of 10 mg/kg (this being the minimal dose of PHT that protected animals against the spread of MES-induced seizures without mortality), and groups (3)–(18) animals in the experimental groups were administered H3R antagonists 1–16 at a dose of 10 mg/kg. In another MES experiment in three separate groups of six rats (n = 6), H3R antagonist 4 with the most promising protection in MES model was administered at doses of 2.5, 5, or 15 mg/kg, i.p. 30–45 min before the MES challenge.

In the next series the target is CYP2D6 (Homo sapiens, UniProt P10635). Briefly: Luminescent CYP2D6 P450-Glo assay. On the procedure:
The metabolic interactions of H3R antagonist 4 were determined by the luminescent P450-Glo™ 3A4 and 2D6 assays purchased from Promega®. All enzymatic reactions were performed according to the manufacturer protocols and as previously described. […] The luminescence was measured with a microplate reader EnSpire (PerkinElmer). The final concentration of H3R antagonist 4 was in the range of 0.1–25 µM, whereas reference inhibitory effects ranged from 0.01 µM to 10 µM. The IC50 values’ calculations were performed by GraphPad Prism™ software (version 5.01, San Diego, CA, USA).

Another series has as its system Hepatoma HepG2 cell line. Briefly: Antiproliferative assay (MTS), HepG2. The class given is cell-based. Particulars: 72 h incubation. As to the method:
(§3) Human embryonic kidney (HEK)-293 cell line (ATCC CRL-1573) was kindly donated by Prof. Dr. […] (Pharmaceutical Institute, Pharmaceutical Chemistry I, University of Bonn). Hepatoma HepG2 (ATCC HB-8065) cell line was kindly donated by the Department of Pharmacological Screening, Jagiellonian University Medical College. The cell cultures' growth conditions in presence of H3R antagonist 4 were applied as described before. The cells' viability was assessed after 72 h of incubation with H3R antagonist and the following references: doxorubicin (Sigma-Aldrich) and carbonyl cyanide 3-chlorophenylhydrazone (CCCP) (Sigma-Aldrich). CellTiter 96® AQueous non-radioactive cell proliferation assay (MTS) was purchased from Promega® and added to each well in the volume of 20 μL. The cells were then incubated for 2-5 h. The microplate reader EnSpire (PerkinElmer Ltd., Waltham, MA, USA) was used to measure the absorbance at 490 nm.

The subject of another series is HEK-293 cell line. Briefly: Antiproliferative assay (MTS), HEK-293. The class given is cell-based, human. Particulars: 72 h incubation. On the procedure: as §3
Setting [2] is: 10 mg/kg i.p. co-administered with RAMH 10 mg/kg i.p.

Molecules are shown by their SMILES. “Also recorded” adds a separate entry of the source.

T1 sequence (P35367 whole entry): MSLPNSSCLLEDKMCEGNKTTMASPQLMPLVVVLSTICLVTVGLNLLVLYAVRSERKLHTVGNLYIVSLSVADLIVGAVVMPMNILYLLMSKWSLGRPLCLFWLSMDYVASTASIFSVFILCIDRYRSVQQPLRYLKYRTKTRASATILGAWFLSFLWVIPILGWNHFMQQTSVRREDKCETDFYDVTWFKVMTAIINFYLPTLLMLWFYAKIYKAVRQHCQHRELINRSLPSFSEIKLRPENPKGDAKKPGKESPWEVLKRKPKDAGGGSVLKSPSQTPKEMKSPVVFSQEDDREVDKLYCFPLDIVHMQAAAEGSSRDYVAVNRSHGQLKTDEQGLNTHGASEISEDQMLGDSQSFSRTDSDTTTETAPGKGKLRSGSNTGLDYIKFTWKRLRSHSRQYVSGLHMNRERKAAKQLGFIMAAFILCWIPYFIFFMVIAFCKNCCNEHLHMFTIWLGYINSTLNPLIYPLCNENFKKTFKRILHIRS
Sequence of CYP2D6 (P10635 whole entry): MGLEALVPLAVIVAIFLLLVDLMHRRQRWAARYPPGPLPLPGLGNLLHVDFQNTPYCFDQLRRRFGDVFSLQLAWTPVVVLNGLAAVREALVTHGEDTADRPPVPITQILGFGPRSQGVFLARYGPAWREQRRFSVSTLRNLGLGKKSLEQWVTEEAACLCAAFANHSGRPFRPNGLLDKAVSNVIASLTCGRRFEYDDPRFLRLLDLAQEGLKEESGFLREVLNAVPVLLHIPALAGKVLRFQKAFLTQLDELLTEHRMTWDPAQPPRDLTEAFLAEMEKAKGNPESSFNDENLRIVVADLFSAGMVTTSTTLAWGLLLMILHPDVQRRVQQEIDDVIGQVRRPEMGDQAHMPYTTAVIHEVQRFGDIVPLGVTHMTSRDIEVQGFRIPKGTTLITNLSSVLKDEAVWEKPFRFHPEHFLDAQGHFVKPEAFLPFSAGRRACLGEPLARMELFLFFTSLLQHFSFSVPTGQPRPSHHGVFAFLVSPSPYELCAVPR

As to `O=C(O)C(=O)O.c1ccc2cc(OCCCCCCN3CCCCCC3)ccc2c1` [Ligand 4, 1-(6-(naphthalen-2-yloxy)hexyl)azepane hydrogen oxalate], the Ki on human H1 receptor was 1270 nM; on hH4R, > 10000 nM. Further, the “fold lower affinity at hH1- and H4Rs than at H3R” value on human H1 receptor (selectivity toward H3Rs) is “at least 10 fold”. Further, in series [1], the main metabolic pathway entry was “double-hydroxylation at the 6-n-hexylazepane moiety”. Moreover, the “STR-Induced Seizure % Protection against GTCS” value in the series on STR-induced seizure is on record as 28.57%. Besides, the “STR-Induced Seizure Average Seizure Score” value in the series with STR-induced seizure came out at 4.57 ± 0.19. In addition, the “protective effect in STR-induced seizure (in words)” value with STR-induced seizure (30 min observation, vs saline-treated group) was “failed to provide any appreciable protection; also recorded: failed to exhibit appreciable protection”. In addition, the “STR-Induced Seizure (protection class)” value with STR-induced seizure (STR 3.5 mg/kg) was “−”. In addition, the “PTZ-Induced Seizure % Protection against GTCS” value with PTZ-induced seizure (2.5 mg/kg i.p.), in the series with PTZ-induced seizure (5 mg/kg i.p.), in the series with PTZ-induced seizure (10 mg/kg i.p.), in the series on PTZ-induced seizure (setting [2]) and in the series with PTZ-induced seizure (15 mg/kg i.p.) was 100% throughout. The “PTZ-Induced Seizure Average Seizure Score” value in the series with PTZ-induced seizure (2.5 mg/kg i.p.) is 2.29 ± 0.44; in the series with PTZ-induced seizure (5 mg/kg i.p.), 0.71 ± 0.31 **^,#; with PTZ-induced seizure (10 mg/kg i.p.), 0.00 ± 0.00 ^&; in the series with PTZ-induced seizure (setting [2]) it was 0.29 ± 0.16; in the series on PTZ-induced seizure (15 mg/kg i.p.) it was 0.00 ± 0.00 ^&. Further, in the series on PTZ-induced seizure (10 mg/kg i.p., observed over 30 min, vs saline-treated group), the “protective effect in PTZ-induced seizure (in words)” value was “full protective activities”. Moreover, in the series on PTZ-induced seizure (10 mg/kg i.p., PTZ 60 mg/kg), the “PTZ-Induced Seizure (protection class)” value is “++ (high protective effect (THLE duration <1, seizure score 0))”. Also, the “MES-Induced Seizure Average THLE” value with MES-induced seizure (2.5 mg/kg i.p.) is 5.83 ± 1.01 s; in the series with MES-induced seizure (setting [2]), 6.17 ± 0.59 s. Moreover, the “MES-Induced Seizure Average THLE (s)” value with MES-induced seizure (5 mg/kg i.p.) was 2.50 ± 1.21 **^,# s; in the series on MES-induced seizure (10 mg/kg i.p.), 0.57 ± 0.21 **^,$ s; in the series with MES-induced seizure (15 mg/kg i.p.) it was 3.67 ± 0.94 **^,# s. In the series with MES-induced seizure (10 mg/kg i.p., vs saline-treated group), the “protective effect in MES-induced seizure (in words)” value is “most promising protective effect”. The “MES-Induced Seizure (protection class)” value in the series with MES-induced seizure (10 mg/kg i.p., 50 Hz, 120 mA, 1 s) was “++ (high protective effect (THLE duration <1, seizure score 0))”. On CYP2D6, this molecule had an IC50 of 670 nM. Also, the “fold higher CYP2D6 IC50 compared with reference drug QD” value at CYP2D6 amounted to 67 fold. Besides, the “concentration with significant decrease of HepG2 proliferation/viability” value in the series with Hepatoma HepG2 cell line is on record as 100 µM.

Consider `COc1cccc2c1C(=O)c1c(O)c3c(c(O)c1C2=O)C[C@@](O)(C(=O)CO)C[C@@H]3O[C@H]1C[C@H](N)[C@H](O)[C@H](C)O1` [DX, doxorubicin], for which, in the series on HEK-293 cell line, the “concentration with significant decrease of HEK-293 proliferation/viability” value stood at 1 µM.
